Like-named read-outs stand apart in the source and are kept apart here.

The nature of one data set: in vivo. More on the design: species or system nude mice (BALB/c nu/nu). Conditions: mouse, in vivo; intravenous, continuous 5 days, nude mice; maximum dose at which no animal was dead within 2 weeks; read-out: Maximum tolerated dose. The procedure:
(1) Measurement of maximum tolerated dose (MTD) of the spicamycin derivatives in nude mice
The spicamycin derivative was dissolved in dimethylsulfoxide (DMSO) and Cremophor EL® at the same volume as DMSO was added. Physiological saline was added so that the concentration of DMSO and Cremophor EL® was finally adjusted to 1%, respectively, and thus injection liquids of spicamycin derivative in a variety of concentrations were prepared. […] The maximum dose at which no animal was dead was defined as the MTD of the respective derivatives.

Data set [1] concerns human colon cancer (COL-1). It counts as in vivo, mouse. Conditions: for TGIR (tumor growth inhibition rate, maximum) / minTx (relative tumor volume when reduced to the minimum): COL-1 s.c. in nude mice, at MTD; for TGIR (tumor growth inhibition rate, maximum): TGIR=(1-Tx/Cx)×100, maximum during about 3 weeks; for minTx (relative tumor volume when reduced to the minimum): minimum throughout the test period. The procedure: (2) Method for measuring the antitumor effect on human colon cancer (COL-1)
COL-1, a human colon cancer, was transplanted subcutaneously into nude mice. When the tumor had grown to a volume of about 100 mm^3, the nude mice were divided into groups of 5 animals so that the average tumor volumes of respective groups were equalized. The respective spicamycin derivatives were administered to test groups at their MTDs, while physiological saline (solvent) containing 1% DMSO and 1% Cremophor EL® was administered to the control group. […] RV is expressed as RV =Vn/Vo where Vn is the tumor volume on day n and Vo is the initial tumor volume at the time treatment was commenced.

[2] abbreviates: /minimum effective dose (effective: TGIR≥50).

Turning to `CCCCCCCCCCCCC(F)(F)C(=O)NCC(=O)NC1C(O)C(O)C(Nc2ncnc3[nH]cnc23)OC1C(O)CO` (centres unmarked) [SPK182, 6-[4,-N-(N'-2,2-difluorotetradecanoylglycyl)spicaminyl-amino]purine], in the data set “in vivo”, the MTD at 336 h is 36 mg/kg/day. Besides, in data set [1], the “TGIR (tumor growth inhibition rate, maximum)” value was found to be 90 and the “minTx (relative tumor volume when reduced to the minimum)” value worked out at 0.24. The compound further registered a Therapeutic index in data set [1] (mouse, in vivo) of 8.

For `CCCCCCCCCCCCC/C=C/C(=O)NCC(=O)N[C@@H]1[C@@H](O)[C@@H](O)[C@@H](Nc2ncnc3[nH]cnc23)O[C@H]1C(O)CO` (stereo partly drawn) [SPK188, 6-[4'-N-(N'-trans-2-hexadecenoylglycyl)spicaminyl-amino]purine], in “in vivo”, the MTD at 336 h came to 0.6 mg/kg/day. The “TGIR (tumor growth inhibition rate, maximum)” value in data set [1] was found to be 92.

As for `CCCCCCCCCCCCCC(CC(=O)NCC(=O)NC1C(O)C(O)C(Nc2ncnc3[nH]cnc23)OC1C(O)CO)OC(C)=O` (centres unmarked) [SPK189, 6-[4'-N-(N'-3-acetoxyhexadecanoylglycyl)-spicaminyl-amino]purine], in “in vivo”, the MTD at 336 h is 6 mg/kg/day. Also, in data set [1], the “TGIR (tumor growth inhibition rate, maximum)” value is 98 and the “minTx (relative tumor volume when reduced to the minimum)” value was 0.09. Besides, in data set [1] (mouse, in vivo), the Therapeutic index was determined as 4.

With `CCCCCCCCCCCCCC[C@@H](OC(C)=O)C(=O)NCC(=O)NC1C(O)C(O)C(Nc2ncnc3[nH]cnc23)OC1C(O)CO` (stereo partly drawn) [SPK198, 6-[4'-N-(N'-(R) -2-acetoxyhexadecanoylglycyl)-spicaminyl-amino]purine], the MTD at 336 h in “in vivo” is 1.5 mg/kg/day. Besides, the “TGIR (tumor growth inhibition rate, maximum)” value in data set [1] is reported as 82.

Regarding `CCCC/C=C\CCCCCCCC(=O)NCC(=O)N[C@@H]1[C@@H](O)[C@@H](O)[C@@H](Nc2ncnc3[nH]cnc23)O[C@H]1C(O)CO` (stereo partly drawn) [SPK231, 6-[4,-N-(N'-cis-9-tetradecenoylglycyl)spicaminyl-amino]purine], the MTD at 336 h in the data set “in vivo” is 6 mg/kg/day. For the same compound, in data set [1], the “TGIR (tumor growth inhibition rate, maximum)” value amounted to 96 and the “minTx (relative tumor volume when reduced to the minimum)” value is 0.12. The Therapeutic index in data set [1] (mouse, in vivo) was 6.

In the case of `CCCCS(=O)(=O)OCCCCCCCCCCCC(=O)NCC(=O)NC1C(O)C(O)C(Nc2ncnc3[nH]cnc23)OC1C(O)CO` (centres unmarked) [SPK232, 6-[4'-N-(N'-12-butanesulfonyloxydodecanoylglycyl)spicaminyl-amino]purine], the MTD at 336 h in the data set “in vivo” was found to be 24 mg/kg/day. For the same compound, in data set [1], the “TGIR (tumor growth inhibition rate, maximum)” value was 96. Also, the Therapeutic index in data set [1] (mouse, in vivo) came out at 4.

Take `CCCCCCCCCCCCCCC(F)C(=O)NCC(=O)NC1C(O)C(O)C(Nc2ncnc3[nH]cnc23)OC1C(O)CO` (centres unmarked) [SPK233, 6-[4'-N-(N'-2-fluorohexadecanoylglycyl)spicaminyl-amino]purine]: in the data set “in vivo”, the MTD at 336 h is 2.7 mg/kg/day. Moreover, the Therapeutic index in data set [1] (setting [2]) amounted to 4. Further, in data set [1], the “TGIR (tumor growth inhibition rate, maximum)” value was 96 and the “minTx (relative tumor volume when reduced to the minimum)” value came to 0.13.

Regarding `O=C(CCCCCCCCCCCCCCF)NCC(=O)NC1C(O)C(O)C(Nc2ncnc3[nH]cnc23)OC1C(O)CO` (centres unmarked) [SPK247, 6-[4,-N-(N'-15-fluoropentadecanoylglycyl)spicaminyl-amino]purine], the MTD at 336 h in the data set “in vivo” amounted to 6 mg/kg/day. Moreover, in data set [1], the “TGIR (tumor growth inhibition rate, maximum)” value is 96 and the “minTx (relative tumor volume when reduced to the minimum)” value is 0.16. The same compound came in with a Therapeutic index in data set [1] (mouse, in vivo) of 8.

Consider `O=C(CCCCCCCCCCCOc1ccccc1)NCC(=O)NC1C(O)C(O)C(Nc2ncnc3[nH]cnc23)OC1C(O)CO` (centres unmarked) [SPK249, 6-[4'-N-(N'-12-phenoxydodecanoylglycyl)-spicaminyl-amino]purine], for which the MTD at 336 h in the data set “in vivo” came out at 3 mg/kg/day. For the same compound, in data set [1], the “TGIR (tumor growth inhibition rate, maximum)” value was 88 and the “minTx (relative tumor volume when reduced to the minimum)” value was 0.26. The same compound had a Therapeutic index in data set [1] (mouse, in vivo) of 4.

As to `CC(C)CCCCCCCCCC(=O)NCC(=O)N[C@@H]1[C@@H](O)[C@@H](O)[C@@H](Nc2ncnc3[nH]cnc23)O[C@H]1C(O)CO` (some centres unmarked) [SPK251, 6-[4'-N-(N'-11-methyldodecanoylglycyl)spicaminyl-amino]purine], the MTD at 336 h in the data set “in vivo” was 6 mg/kg/day. Besides, in data set [1], the “TGIR (tumor growth inhibition rate, maximum)” value was found to be 97. In data set [1] (mouse, in vivo), this compound came in with a Therapeutic index of 8.

As to `O=C(CCCCCCCCC#Cc1cccs1)NCC(=O)NC1C(O)C(O)C(Nc2ncnc3[nH]cnc23)OC1C(O)CO` (centres unmarked) [SPK262, 6-{4'-N-[N'-11-(2'-thienyl)-10-undecynoylglycyl]spicaminyl-amino}purine], in “in vivo”, the MTD at 336 h worked out at 8 mg/kg/day. In data set [1], the “TGIR (tumor growth inhibition rate, maximum)” value is given as 99 and the “minTx (relative tumor volume when reduced to the minimum)” value worked out at 0.03. Besides, the Therapeutic index in data set [1] (mouse, in vivo) was 4.

In the case of `O=C(CCCCCCCCC#Cc1ccsc1)NCC(=O)NC1C(O)C(O)C(Nc2ncnc3[nH]cnc23)OC1C(O)CO` (centres unmarked) [SPK263, 6-{4,-N-[N'-11-(3'-thienyl)-10-undecynoylglycyl]spicaminyl-amino}purine], the MTD at 336 h in “in vivo” is 12 mg/kg/day. Besides, in data set [1], the “TGIR (tumor growth inhibition rate, maximum)” value was determined as 97 and the “minTx (relative tumor volume when reduced to the minimum)” value amounted to 0.09. This compound registered a Therapeutic index in data set [1] (mouse, in vivo) of 8.

`O=C(CCCCCCCCC#Cc1ccoc1)NCC(=O)NC1C(O)C(O)C(Nc2ncnc3[nH]cnc23)OC1C(O)CO` (centres unmarked) [SPK266, 6-{4'-N-[N'-11-(3'-furyl)-10-undecynoylglycyl]spicamynyl-amino}purine]: in “in vivo”, the MTD at 336 h stood at 12 mg/kg/day. Also, in data set [1], the “TGIR (tumor growth inhibition rate, maximum)” value was 97 and the “minTx (relative tumor volume when reduced to the minimum)” value is reported as 0.18. Moreover, the Therapeutic index in data set [1] (mouse, in vivo) was determined as 8.

As for `CCCCCCCCCCC[C@@H](O)CC(=O)NCC(=O)NC1C(O)C(O)C(Nc2ncnc3[nH]cnc23)OC1C(O)CO` (stereo partly drawn) [SPK270, 6-[4'-N-(N'-(R)-3-hydroxytetradecanoylglycyl)spicaminyl-amino]purine], in the data set “in vivo”, the MTD at 336 h stood at 12 mg/kg/day. For the same compound, in data set [1], the “TGIR (tumor growth inhibition rate, maximum)” value worked out at 94 and the “minTx (relative tumor volume when reduced to the minimum)” value is listed as 0.21. The Therapeutic index in data set [1] (mouse, in vivo) was determined as 4.

On to `CCCCCCCCCCCCCC[C@H](O)C(=O)NCC(=O)NC1C(O)C(O)C(Nc2ncnc3[nH]cnc23)OC1C(O)CO` (stereo partly drawn) [SPK271, 6-[4'-N-(N'-(S)-2-hydroxyhexadecanoylglycyl)spicaminyl-amino]purine], for which the MTD at 336 h in the data set “in vivo” is 2 mg/kg/day. For the same compound, the Therapeutic index in data set [1] (setting [2]) was determined as 8. Also, in data set [1], the “TGIR (tumor growth inhibition rate, maximum)” value was found to be 99 and the “minTx (relative tumor volume when reduced to the minimum)” value amounted to 0.09.

Take `O=C(CCCCCCCCCCCCCBr)NCC(=O)N[C@@H]1[C@@H](O)[C@@H](O)[C@@H](Nc2ncnc3[nH]cnc23)O[C@H]1C(O)CO` (some centres unmarked) [SPK273, 6-[4'-N-(N'-14-bromotetradecanoylglycyl)spicaminyl-amino]purine]: in “in vivo”, the MTD at 336 h came to 12 mg/kg/day. Also, in data set [1], the “TGIR (tumor growth inhibition rate, maximum)” value turned out to be 98 and the “minTx (relative tumor volume when reduced to the minimum)” value was 0.11. The same compound gave a Therapeutic index in data set [1] (mouse, in vivo) of 8.

Consider `O=C(CCCCCCCCCCCCBr)NCC(=O)N[C@@H]1[C@@H](O)[C@@H](O)[C@@H](Nc2ncnc3[nH]cnc23)O[C@H]1C(O)CO` (some centres unmarked) [SPK276, 6-[4'-N-(N'-13-bromotridecanoylglycyl)spicaminyl-amino]purine], for which the MTD at 336 h in “in vivo” was found to be 12 mg/kg/day. Moreover, in data set [1], the “TGIR (tumor growth inhibition rate, maximum)” value came to 96 and the “minTx (relative tumor volume when reduced to the minimum)” value worked out at 0.16. Further, the Therapeutic index in data set [1] (mouse, in vivo) was found to be 8.

The values are drawn from US5461036A, “Spicamycin derivatives and their use as anticancer agents” (priority 1991, dated 1995).
